Values after ≈ are worked out from the molar mass of the structure shown. Where two headings read alike, the source gives them in different places.
What was measured:
[1] = test system: Klebisiella pneumoniae ATCC 10031; test: Antimicrobial activity, agar dilution method (MIC), KP; assay type: cell-based; details: agar dilution, pH 7; read-out: MIC, KP
Description: | KP: Klebisiella pneumoniae ATCC 10031

[2] = test system: Staphylococcus aureus ATCC 6538P; test: Antimicrobial activity, agar dilution method (MIC), SA; assay type: cell-based; details: ATCC6538P, agar dilution, pH 7, read-out: MIC, SA
Description: | SA: Staphylococcus aureus ATCC 6538P

[3] = test system: HeLa S3 cells; test: HeLa S3 cell growth inhibition test (Neutral Red); assay type: cell-based; details: Homo sapiens, read-out: HeLa S3 Cell Growth Inhibition Activity, IC50
Description: In each well of a 96-well microtiter plate was placed 0.1 mL of HeLa S3 cells having a concentration of 8×10^3 cells/mL and prepared in an MEM culture medium containing 10% fetal bovine serum and 2 mM glutamine. After the cells were incubated overnight at 37° C. in a carbon dioxide incubator, a test compound suitably diluted with a medium was added to the wells in an amount of 0.05 mL for each well. The cells were incubated at 37° C. for 72 hours in a carbon dioxide incubator. After the culture supernatant was removed, 0.1 mL of a culture medium containing 0.02% Neutral Red was added to each well. The cells were then incubated at 37° C. for 1 hour in a carbon dioxide incubator to dye the cells. After the culture supernatant was removed, each residue was rinsed once with physiological saline and the pigment was extracted with 0.001N hydrochloric acid/30% ethanol. The absorbance at 550 nm of each extract was measured with a microplate reader. The drug concentration required for the 50% inhibition of cell growth, which is referred to as IC50, was calculated by comparing the absorbance for untreated cells with those for cells treated with the drug in known concentrations.

[4] = test system: Enterococcus hirae ATCC 10541; details: pH 7
Description: (§1) Antimicrobial activity was determined by the agar dilution method using a culture medium (pH 7) prepared by dissolving 3 g of Bacto-Tryptone (manufactured by Difco, Co.), 3 g of meat extract, 1 g of yeast extract, 1 g of glucose, and 16 g of agar in 1 l of water.
EH: Enterococcus hirae ATCC 10541

[5] = test system: Escherichia coli ATCC 26; test: Antimicrobial activity, agar dilution method (MIC), EC; assay type: cell-based
Description: | EC: Escherichia coli ATCC 26

[6] = test system: Bacillus substilis NO. 10707; test: Antimicrobial activity, agar dilution method (MIC), BS; assay type: cell-based; details: NO.10707, agar dilution, pH 7, read-out: MIC, BS
Description: | BS: Bacillus substilis NO. 10707

[7] = test system: Sarcoma 180 mouse solid tumor; test: Antitumor activity against Sarcoma 180 mouse solid tumor; assay type: in vivo, male ddY mice; details: Sarcoma-180, iv, 168 h, single i.v., tumor volume on day 7 from transplant, read-out: T/C (tumor volume ratio treated/control)
Description: To a ddY mouse were intraperitoneally transplanted 5×10^6 sarcoma 180 cells. On the seventh day from the transplant, the cells were collected from the ascites, washed once with sterilized physiological saline, and then diluted with sterilized physiological saline to prepare a cell suspension having a concentration of 5×10^7 cells/mL. This suspension was transplanted in an amount of 0.01 mL to a subcutaneous part of the right axilla of each of male ddY mice each weighing 20±1 g.
A test compound was dissolved in physiological saline containing polyoxyethylene sorbitan monolaurate. At 24 hours after the tumor transplant, 0.2 mL of the solution was intravenously administered to the tail of each of a group of five mice.

[8] = test system: Enterococcus hirae ATCC 10541; test: Antimicrobial activity, agar dilution method (MIC), EH; details: pH 7
Description: as §1
EH: Enterococcus hirae ATCC 10541

[9] = test system: various bacteria; details: background, Japanese Published Unexamined Patent Application No. 112988/89; cited from earlier work
[10] = background, Japanese Published Unexamined Patent Application No. 112988/89; cited from earlier work
[11] = ATCC26, agar dilution, pH 7, read-out: MIC, EC

Row | MIC [2] [µg/mL] | IC50 ([3]; HeLa S3, 72 hours, 37° C.) [nM] | MIC, EH [4] [µg/mL] | MIC [6] [µg/mL] | SMILES | MIC [1] [µg/mL] | MIC [5, 11] [µg/mL] | response vs control in vivo at 4 mg/kg ([7]; 4.0 mg/kg) [%] | IC50 ([3]; HeLa S3, 72 h) [nM] | MIC ([5]; ATCC26, pH 7, read-out: MIC, EC) [µg/mL] | response vs control in vivo at 8 mg/kg [7] [%] | MIC, EH [8] [µg/mL] | response vs control in vivo at 16 mg/kg ([7]; 16 mg/kg) [%] | antimicrobial activity [9] | antitumor activity [10]
1 | 42 (≈ 53.6 µM) | 30 | 42 (≈ 53.6 µM) | 42 (≈ 53.6 µM) | COCCOCCOCC(=O)OC1/C=C(\C)CCC2(C(C)(O)C(=O)SCc3oc(=O)oc3C)CC(=O)N(C(C)c3nc(cs3)/C=C\C=C\C1=O)[S+]2[O-] (centres unmarked) [Compound 12] | 42 (≈ 53.6 µM) | 4.2 (≈ 5.36 µM) | – | – | – | 39 | – | – | – | –
2 | 5.2 (≈ 5.97 µM) | 35 | 2.6 (≈ 2.99 µM) | 2.6 (≈ 2.99 µM) | COCCOCCOCCOCCOCC(=O)OC1/C=C(\C)CCC2(C(C)(O)C(=O)SCc3oc(=O)oc3C)CC(=O)N(C(C)c3nc(cs3)/C=C\C=C\C1=O)[S+]2[O-] (centres unmarked) [Compound 14] | – | – | – | – | – | – | – | – | – | –
3 | 5.2 (≈ 5.11 µM) | – | 1.3 (≈ 1.28 µM) | 2.6 (≈ 2.56 µM) | COCCOCCOCC(=O)OCCOCCOCCOCCOCC(=O)OC1/C=C(\C)CCC2(C(C)(O)C(=O)SCc3oc(=O)oc3C)CC(=O)N(C(C)c3nc(cs3)/C=C\C=C\C1=O)[S+]2[O-] (centres unmarked) [Compound 39] | 2.6 (≈ 2.56 µM) | – | – | – | – | – | – | 38 | – | –
4 | – | – | – | – | C/C1=C\C(O)C(=O)/C=C/C=C\c2csc(n2)C(C)NC(=O)CC2(CC1)[S+]([O-])SC(=O)C2(C)O (centres unmarked) [DC107] | – | – | – | – | – | – | – | – | antimicrobial activity against various bacteria | antitumor activity

Row | SMILES | MIC [2] [µg/mL] | IC50 ([3]; HeLa S3, 72 hours, 37° C.) [nM] | MIC, EH [4] [µg/mL] | MIC [6] [µg/mL] | MIC [1] [µg/mL] | MIC [5, 11] [µg/mL] | response vs control in vivo at 4 mg/kg ([7]; 4.0 mg/kg) [%] | IC50 ([3]; HeLa S3, 72 h) [nM] | MIC ([5]; ATCC26, pH 7, read-out: MIC, EC) [µg/mL] | response vs control in vivo at 8 mg/kg [7] [%] | MIC, EH [8] [µg/mL] | response vs control in vivo at 16 mg/kg ([7]; 16 mg/kg) [%] | antimicrobial activity [9] | antitumor activity [10]
5 | COCCOCCOCC(=O)OC1/C=C(\C)CCC2(CC(=O)NC(C)c3nc(cs3)/C=C\C=C\C1=O)[S+]([O-])SC(=O)C2(C)O (centres unmarked) [Compound 2] | 0.13 (≈ 0.194 µM) | 25 | 0.23 (≈ 0.343 µM) | 0.13 (≈ 0.194 µM) | 0.23 (≈ 0.343 µM) | 1.8 (≈ 2.68 µM) | 30 | – | – | – | – | – | – | –
6 | COCCOCCOCCOCCOCCOCC(=O)OC1/C=C(\C)CCC2(CC(=O)NC(C)c3nc(cs3)/C=C\C=C\C1=O)[S+]([O-])SC(=O)C2(C)O (centres unmarked) [Compound 5] | 0.4 (≈ 0.498 µM) | – | – | 0.2 (≈ 0.249 µM) | 0.39 (≈ 0.486 µM) | – | – | 67 | 3.1 (≈ 3.86 µM) | 30 | 0.20 (≈ 0.249 µM) | – | – | –

Reference: US6080771A, “DC107 derivatives” (Kyowa Hakko Kogyo Co., Ltd., priority 1996, dated 2000)
